36 compounds from ChEMBL document CHEMBL3046076, “3D-QSAR CoMFA and CoMSIA studies on a set of diverse 1a-adrenergic receptor antagonists” (Med Chem Res, 2011) can be followed below.

One experiment deals with T1, Alpha-1A adrenergic receptor (Homo sapiens, UniProt P35348).
T1 sequence (P35348 whole entry): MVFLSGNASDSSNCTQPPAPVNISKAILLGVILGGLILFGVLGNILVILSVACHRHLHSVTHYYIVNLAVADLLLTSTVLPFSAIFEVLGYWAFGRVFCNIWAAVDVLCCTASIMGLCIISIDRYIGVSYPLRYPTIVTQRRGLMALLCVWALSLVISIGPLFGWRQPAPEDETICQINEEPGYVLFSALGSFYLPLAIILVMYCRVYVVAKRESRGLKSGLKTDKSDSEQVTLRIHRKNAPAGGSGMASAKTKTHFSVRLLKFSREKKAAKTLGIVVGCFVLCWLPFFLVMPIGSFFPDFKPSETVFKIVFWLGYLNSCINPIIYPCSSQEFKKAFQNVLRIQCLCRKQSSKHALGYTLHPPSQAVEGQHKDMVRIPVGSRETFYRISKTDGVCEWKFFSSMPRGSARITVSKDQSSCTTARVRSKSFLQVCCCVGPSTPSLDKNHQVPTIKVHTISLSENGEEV
Put plainly: Binding affinity to adrenergic alpha1A receptor (unknown origin). Conditions: read-out: Ki.
Regarding `COc1cccc(OC)c1OCCN[C@H]1CO[C@H](c2ccccc2)CO1`, the Ki was determined as 513 nM. Regarding `COc1cc2nc3c(c(N)c2cc1OC)CCC(CNCOc1c(OC)cccc1OC)C3` (stereo unspecified), the Ki is 1700 nM.

As for `COc1cccc(OC)c1OCCNC1COCC(c2ccccc2)(c2ccccc2)O1` (stereo unspecified), the Ki came out at 339 nM.

Turning to `c1ccc(OCCNC2COC(c3ccccc3)(c3ccccc3)CO2)cc1` (stereo unspecified), the Ki is 224 nM.

As for `C[N+](C)(CCOc1ccccc1)CC1COC(c2ccccc2)(c2ccccc2)O1` (stereo unspecified), the Ki is 24.5 nM. For the compound `COc1cccc(OC)c1OCCN[C@H]1C[C@H](c2ccccc2)c2ccccc2S1`, the Ki is 2.34 nM. Regarding `Cc1ccc(C)c(N2CCN(CCN3C(=O)CC4(CCCC4)CC3=O)CC2)c1`, the Ki was 95.4 nM. Turning to `O=C1CC2(CCCC2)C(=O)N1CCN1CCN(c2cc(Cl)ccc2Cl)CC1`, the Ki turned out to be 54.6 nM. The same measure, in the same setting: under `COc1cc2nc3c(c(N)c2cc1OC)CCC(CNC(=O)c1ccoc1)C3` (stereo unspecified) stands 95.5 nM; under `O=C1CC2(CCCC2)CC(=O)N1CCN1CCCN(c2ccccc2Cl)CC1`, 236 nM. Still for that read-out and setting: under `COc1ccccc1N1CCN(CC2CO[C@H](c3ccccc3)O2)CC1` (stereo partly specified) stands 28.8 nM; under `COc1ccccc1OCCNC1COC(c2ccccc2)(c2ccccc2)CO1` (stereo unspecified), 74.1 nM. Regarding `COc1ccccc1N1CCN(CCN2C=CC3(CCCC3)CC2=O)CC1`, the Ki worked out at 23.4 nM. As for `O=C1CC2(CCCC2)CCN1CCN1CCN(c2ccccc2Cl)CC1`, the Ki came out at 70 nM. Same read-out and setting: under `O=C1CC2(CCCC2)CC(=O)N1CCN1CCN(c2cc(F)ccc2Cl)CC1` stands 86.2 nM; under `COc1ccccc1N1CCN(CC2CO[C@H](c3cccc4ccccc34)O2)CC1` (stereo partly specified), 7.94 nM. `COc1ccccc1N1CCN(CC2COC3(CCCCC3)O2)CC1` (stereo unspecified): the Ki came out at 91.2 nM. As for `COc1ccccc1N1CCN(CC(O)COc2cccc3ccccc23)CC1` (stereo unspecified) [NAFTOPIDIL], the Ki worked out at 5.88 nM.

As for `N#Cc1ccccc1N1CCN(CCN2C(=O)CC3(CCCC3)CC2=O)CC1`, the Ki came out at 171 nM. In the case of `COc1cccc(OC)c1OCCN[C@H]1COC[C@H](c2ccccc2)O1`, the Ki is 468 nM. As to `c1ccc(OCCNC2COCC(c3ccccc3)(c3ccccc3)O2)cc1` (stereo unspecified), the Ki turned out to be 170 nM. Take `COc1cc2nc3c(c(N)c2cc1OC)CC(CNC(=O)c1ccoc1)C3` (stereo unspecified): the Ki was 158 nM. For `c1ccc(OCCN[C@H]2COC[C@H](c3ccccc3)O2)cc1`, the Ki was found to be 407 nM. For `CC(CN1CCN(c2cc(Cl)ccc2Cl)CC1)N1C(=O)CC2(CCCC2)CC1=O` (stereo unspecified), the Ki came out at 149 nM. In the case of `N#Cc1ccc(Cl)cc1N1CCN(CCN2C(=O)CC3(CCCC3)CC2=O)CC1`, the Ki was 403 nM. Regarding `COc1ccccc1N1CCN(CC2CO[C@@H](c3cccc4ccccc34)O2)CC1` (stereo partly specified), the Ki is 36.3 nM. On to `CN(CCOc1ccccc1)CC1COC(c2ccccc2)(c2ccccc2)O1` (stereo unspecified), for which the Ki was found to be 33.9 nM. Same read-out and setting: the figure for `Cc1ccc(Cl)c(N2CCN(CCN3C(=O)CC4(CCCC4)CC3=O)CC2)c1` is 100 nM. For `O=C1CC2(C=CN1CCN1CCN(c3ccccc3Cl)CC1)CCCC2`, the Ki was determined as 43.1 nM. Still for that read-out and setting: the figure for `c1ccc(OCCN[C@H]2CO[C@H](c3ccccc3)CO2)cc1` is 537 nM; for `CC(C)Oc1ccccc1N1CCN(CCN2C(=O)CC3(CCCC3)CC2=O)CC1` it is 2.83 nM; for `COc1cccc(OC)c1OCCNC[C@@H]1C(=O)c2ccccc2C[C@H]1c1ccccc1` it is 8.7 nM.

As to `O=C1CC2(CCCC2)CC(=O)N1CCCCN1CCN(c2cc(Cl)ccc2Cl)CC1`, the Ki is 1.45 nM. Take `COc1cccc(OC)c1OCCN[C@H]1C[C@@H](c2ccccc2)c2ccccc2O1`: the Ki was 0.05 nM. Still for that read-out and setting: the figure for `COc1cccc(OC)c1OCCN[C@H]1C[C@@H](c2ccccc2)c2ccccc2S1` is 0.08 nM; for `O=C1CC2(CCCC2)CC(=O)N1CCN1CCN(c2ccccc2)CC1` it is 2680 nM.

The same experiment, now with this note: read-out: pKi (converted).
Regarding `COc1cc2nc3c(c(N)c2cc1OC)CCC(CNC(=O)c1ccoc1)C3` (stereo unspecified), the Ki is 2570 nM. For the compound `CC(CN1CCN(c2cc(Cl)ccc2Cl)CC1)N1C(=O)CC2(CCCC2)CC1=O` (stereo unspecified), the Ki was 151 nM. The same measure, in the same setting: under `N#Cc1ccc(Cl)cc1N1CCN(CCN2C(=O)CC3(CCCC3)CC2=O)CC1` stands 407 nM. For the compound `O=C1CC2(C=CN1CCN1CCN(c3ccccc3Cl)CC1)CCCC2`, the Ki was 43.7 nM. Regarding `COc1cccc(OC)c1OCCN[C@H]1C[C@@H](c2ccccc2)c2ccccc2S1`, the Ki is 0.0891 nM.
